Measurements as given in patent publication US20100234377A1 (priority 2007, published 2010).
Read-outs that look alike come from different tables or passages of the source.

Experiments:
[1] = target: T1, human Prostaglandin D Synthase (GST2) (Homo sapiens, UniProt O60760); test: Homogeneous biochemical assay of human Prostaglandin D Synthase (GST2) based on its glutathion-S-transferase activity (GSH conjugation to monochlorobimane, fluorescence)
T1 construct: the open reading frame of human Prostaglandin D Synthase was amplified from cDNA; made in house; host or cells: E. coli TOP10F'
T1 sequence (O60760 whole entry): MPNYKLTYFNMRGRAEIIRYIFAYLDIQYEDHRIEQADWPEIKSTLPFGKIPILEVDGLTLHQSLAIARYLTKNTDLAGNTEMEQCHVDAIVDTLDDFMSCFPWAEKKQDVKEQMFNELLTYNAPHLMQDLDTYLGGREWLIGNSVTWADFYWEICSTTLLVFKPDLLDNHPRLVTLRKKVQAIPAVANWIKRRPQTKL
How it was run: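 N-His-tagged human PGD synthase from E. coli, assayed via its GST activity: GSH conjugation to monochlorobimane in 50 mM MES/KOH pH 6.1, 0.7 mM GSH, 2 mM MgCl2. Compounds at final picomolar to triple-digit micromolar concentrations.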

K+ATP channel = K+ATP channel (Rattus norvegicus, UniProt Q09429); test: KATP channel receptor binding assay ([3H]glibenclamide); conditions: [3H]glibenclamide 0.1 nM, rat cerebral cortex; for inhibition at 10 µM: Table 1, 10 μM compound concentration, read-out: K^+ATP Channel (% Inhibition of Control Specific Binding); for K+ATP Channel (% Inhibition of Control Specific Binding): Table 3
Sequence of K+ATP channel (Q09429 whole entry): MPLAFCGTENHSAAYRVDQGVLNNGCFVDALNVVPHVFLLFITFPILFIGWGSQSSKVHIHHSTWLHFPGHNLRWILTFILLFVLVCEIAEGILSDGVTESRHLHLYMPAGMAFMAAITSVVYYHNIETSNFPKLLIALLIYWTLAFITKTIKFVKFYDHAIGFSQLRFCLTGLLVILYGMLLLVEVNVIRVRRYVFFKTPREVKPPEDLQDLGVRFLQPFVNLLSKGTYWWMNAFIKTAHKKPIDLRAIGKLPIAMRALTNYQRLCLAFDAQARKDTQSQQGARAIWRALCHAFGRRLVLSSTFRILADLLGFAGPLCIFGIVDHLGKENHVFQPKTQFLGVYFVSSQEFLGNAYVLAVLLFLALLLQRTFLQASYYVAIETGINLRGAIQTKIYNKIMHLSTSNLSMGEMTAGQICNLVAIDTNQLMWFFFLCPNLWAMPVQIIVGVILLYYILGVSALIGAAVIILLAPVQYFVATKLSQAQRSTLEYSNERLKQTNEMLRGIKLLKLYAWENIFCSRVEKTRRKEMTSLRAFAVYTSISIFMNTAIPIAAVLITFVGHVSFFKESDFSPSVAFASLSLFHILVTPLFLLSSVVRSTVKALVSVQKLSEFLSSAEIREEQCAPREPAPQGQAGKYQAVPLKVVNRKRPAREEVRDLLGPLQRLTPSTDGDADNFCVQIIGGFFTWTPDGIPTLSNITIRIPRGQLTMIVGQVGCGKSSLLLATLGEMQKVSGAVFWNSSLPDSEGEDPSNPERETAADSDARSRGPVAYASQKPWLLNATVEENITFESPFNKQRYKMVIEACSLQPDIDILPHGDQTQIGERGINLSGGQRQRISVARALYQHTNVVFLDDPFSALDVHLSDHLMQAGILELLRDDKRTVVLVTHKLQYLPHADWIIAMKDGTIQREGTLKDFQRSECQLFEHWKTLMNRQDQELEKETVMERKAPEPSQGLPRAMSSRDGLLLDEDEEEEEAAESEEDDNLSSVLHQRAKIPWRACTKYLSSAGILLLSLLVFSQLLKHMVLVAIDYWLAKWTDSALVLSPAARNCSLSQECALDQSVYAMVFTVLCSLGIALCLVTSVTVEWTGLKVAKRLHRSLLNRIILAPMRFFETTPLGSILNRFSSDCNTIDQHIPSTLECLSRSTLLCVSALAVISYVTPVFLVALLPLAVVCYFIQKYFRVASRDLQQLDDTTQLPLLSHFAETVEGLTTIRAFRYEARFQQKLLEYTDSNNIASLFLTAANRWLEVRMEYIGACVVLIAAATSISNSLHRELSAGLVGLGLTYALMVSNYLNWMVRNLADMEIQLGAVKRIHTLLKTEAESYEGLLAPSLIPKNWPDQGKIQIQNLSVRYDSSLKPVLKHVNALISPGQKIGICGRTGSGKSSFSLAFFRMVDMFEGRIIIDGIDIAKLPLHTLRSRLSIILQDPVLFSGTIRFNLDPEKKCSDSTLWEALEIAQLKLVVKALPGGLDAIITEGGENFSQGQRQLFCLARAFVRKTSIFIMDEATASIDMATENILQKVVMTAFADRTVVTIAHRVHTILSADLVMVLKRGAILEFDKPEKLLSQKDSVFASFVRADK
Sequence of K+ATP channel (P70673 whole entry partner): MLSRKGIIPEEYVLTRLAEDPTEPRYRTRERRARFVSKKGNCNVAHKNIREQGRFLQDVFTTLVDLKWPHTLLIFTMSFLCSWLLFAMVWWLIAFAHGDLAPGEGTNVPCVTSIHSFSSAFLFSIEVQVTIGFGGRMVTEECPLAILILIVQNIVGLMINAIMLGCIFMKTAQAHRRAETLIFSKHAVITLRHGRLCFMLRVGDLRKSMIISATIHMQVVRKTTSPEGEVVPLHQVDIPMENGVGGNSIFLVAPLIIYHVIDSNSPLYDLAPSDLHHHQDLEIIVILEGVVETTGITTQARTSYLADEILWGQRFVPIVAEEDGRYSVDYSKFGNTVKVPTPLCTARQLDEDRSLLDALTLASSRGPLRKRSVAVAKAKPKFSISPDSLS
Procedure: KATP Channel Mediated Binding Assay
The compounds of Comparative Examples I to XII and Compounds 59, 30, 22, 76 and 69 were tested for their effects in an in vitro receptor binding KATP channel assay.
(§1) The specific ligand binding to the receptor is defined as the difference between the total binding and the non-specific binding determined in the presence of an excess of unlabelled ligand. The results are expressed as a percent inhibition of control specific binding obtained in the presence of the test compounds.
(§2) In each experiment, the respective reference compound was tested concurrently with the test compounds in order to assess the assay suitability. It was tested at several concentrations (for IC50 value determination), and the data were compared with historical values.

PPARγ (h) = target: T2, PPARγ (h) (Homo sapiens, UniProt P37231); test: PPARγ receptor binding assay ([3H]rosiglitazone); conditions: Table 3; [3H]rosiglitazone 10 nM, human recombinant
T2 construct: host or cells: E. coli
T2 sequence (P37231 1-505): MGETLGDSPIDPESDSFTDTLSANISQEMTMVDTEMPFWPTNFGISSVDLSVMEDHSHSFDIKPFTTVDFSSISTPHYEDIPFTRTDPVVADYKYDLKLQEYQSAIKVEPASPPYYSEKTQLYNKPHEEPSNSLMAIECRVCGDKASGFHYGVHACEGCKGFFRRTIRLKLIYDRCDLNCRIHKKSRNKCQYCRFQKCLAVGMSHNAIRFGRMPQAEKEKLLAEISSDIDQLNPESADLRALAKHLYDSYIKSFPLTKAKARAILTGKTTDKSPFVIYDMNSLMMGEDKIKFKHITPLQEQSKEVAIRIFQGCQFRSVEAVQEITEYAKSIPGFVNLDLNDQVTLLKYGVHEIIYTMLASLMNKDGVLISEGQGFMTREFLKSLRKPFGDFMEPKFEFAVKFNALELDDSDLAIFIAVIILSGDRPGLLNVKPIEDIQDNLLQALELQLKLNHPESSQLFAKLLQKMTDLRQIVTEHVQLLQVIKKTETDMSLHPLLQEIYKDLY
Source text: Selected GST2 Inhibitors Screened Against PPARγ and KATP Channel Modulator Assays
Selected GST2 inhibitors of General Formula (I) were screened in a PPARγ assay to determine their modulator effects.
as §1, §2

[2] = system: B6.V Lep^ob mice (ob/ob mice); test: Pharmacological study: body weight and food intake of treated ob/ob mice; type: in vivo, mouse; conditions: male ob/ob mice, 120 mg/kg/day by oral gavage, 12 days of treatment, versus vehicle
Procedure: FIG. 1 is a body weight curve graph which plots the body weight and food intake of mice over time. Some of the mice are given food only whereas some are given food together with Compound 22 below.
16 Male ob/ob mice were obtained from Charles River in Belgium at an approximate age of 6 weeks and with an approximate mean body weight of 35 g at the beginning of substance administration. Mice were housed 4 per cage at a temperature of 23° C.±1 and a day/night cycle of 14/10 hours (05:00-19:00-05:00), with ad libitum access to standard chow and tap water. Mice were allowed to adapt to these conditions for 8 days prior to the start of treatment. Animals were administered substance by oral gavage in the morning at 07:00, immediately after determining body weight and food consumption. In the evening substance was administered at 19:00. One group of 8 animals were administered vehicle, 0.3% methylcellulose in saline, and the second group of 8 animals were administered Compound 22 (120 mg/kg/day) suspended in the vehicle. Body weight and food consumption were recorded daily during 12 days of treatment and the results are presented in FIG. 1, which is a body weight curve graph. This illustrates a 7% reduced weight gain in Compound 22 administered ob/ob mice, despite unaltered food intake.

[3] = Mouse microsomal metabolism assay; type: in vitro ADME; conditions: liver microsomes; mouse hepatic microsomes, 37° C., phosphate buffer pH 7.4, NADPH regenerating system; read-out: Mouse t½
Procedure: Selected GST2 Inhibitors from Formula I Assessed in Mouse Microsomal Metabolism Assay
Selected GST2 inhibitors of General Formula (I) were screened in a mouse hepatic microsome assay to determine microsomal metabolism.
Test Articles were prepared in 50% acetonitrile.
Mouse hepatic microsomes supplied by BD GenTest Inc or an equivalent reputable supplier.
Test Articles are added to incubation plates containing phosphate buffer pH 7.4 and microsomes at a suitable protein concentration. Incubation plates are placed on a shaking water bath at 37° C. for 5 minutes pre-incubation. An aliquot of the reaction mixture is taken and added to acetonitrile (3:1). This is designated time […]. NADPH regenerating system in phosphate buffer pH 7.4 is added to initiate reactions. Aliquots from the incubation wells are taken at a number of time points and added to acetonitrile. Control incubations contained no microsomes or compounds with known microsomal stabilities. Samples were subject to centrifugation to remove denatured protein and the supernatants were analysed by LCMS.
Half lives were calculated from the log vs time transformed data according to the following equation: […]
Where λ is the slope of the linear regression line under first order (Test Article concentration <Km) conditions.

[4] = Table 1, read-out: GST2 IC50 Range
[5] = Table 3, read-out: GST2 IC50 range
[6] = given beside the compound name in Examples 1 to 167, read-out: Potency Range (GST2 IC50)

| Structure (SMILES) | IC50 [1, 4] | IC50 [1, 5] | IC50 [1, 6] | inhibition at 10 µM (K+ATP channel) | K+ATP Channel (% Inhibition of Control Specific Binding) (K+ATP channel) | PPARγ (% Inhibition of Control Specific Binding) (PPARγ (h)) | reduced weight gain [2] | half-life [3] |
| --- | --- | --- | --- | --- | --- | --- | --- | --- |
| O=C(Nc1ccc(N2CCN(C(=O)OC3CCOC3)CC2)c(F)c1)N1CCN(C(=O)c2cccc(F)c2)CC1 (racemic) [Compound 59, 4-(2-Fluoro-4-{[4-(3-fluoro-benzoyl)-piperazine-1-carbonyl]-amino}-phenyl)-piperazine-1-carboxylic acid tetrahydro-furan-3-yl ester] | 11 to 100 nM | 11 to 100 nM | 11 to 100 nM | 15% | 12% | 15% | – | – |
| O=C(Nc1cc(C(F)(F)F)cc(C(F)(F)F)c1)N1CCN(C(=O)c2ccco2)CC1 [Compound I, 4-(Furan-2-carbonyl)-piperazine-1-carboxylic acid (3,5-bis-trifluoromethyl-phenyl)-amide, reference compound] | 101 to 1000 nM | – | – | -1% | – | – | – | – |
| Cn1cnnc1-c1cccc(NC(=O)N2CCN(C(=O)c3cccc(F)c3)CC2)c1 [Compound 76, 4-(3-Fluoro-benzoyl)-piperazine-1-carboxylic acid [3-(4-methyl-4H-[1,2,4]triazol-3-yl)-phenyl]-amide] | 11 to 100 nM | 11 to 100 nM | 101 to 1000 nM | 20% | −2% | 20% | – | – |
| O=C(c1ccco1)N1CCN(C(=S)Nc2cc(Cl)cc(Cl)c2)CC1 [Compound IV, 4-(Furan-2-carbonyl)-piperazine-1-carbothioic acid (3,5-dichloro-phenyl)-amide, reference compound] | 101 to 1000 nM | – | – | -7% | – | – | – | – |
| O=C(Nc1ccc(C(F)(F)F)cc1)N1CCN(C(=O)c2cccc(F)n2)CC1 [Compound 22, 4-(6-Fluoro-pyridine-2-carbonyl)-piperazine-1-carboxylic acid (4-trifluoromethyl-phenyl)-amide] | 101 to 1000 nM | 101 to 1000 nM | 101 to 1000 nM | 1% | 14% | 1% | 7% | > 1 h |
| O=C(Nc1cc(C(F)(F)F)ccc1Cl)N1CCN(C(=O)c2ccccc2)CC1 [Compound VIII, 4-Benzoyl-piperazine-1-carboxylic acid (2-chloro-5-trifluoromethyl-phenyl)-amide, reference compound] | 101 to 1000 nM | – | – | -3% | – | – | – | – |
| O=C(c1ccco1)N1CCN(C(=S)Nc2cc(C(F)(F)F)ccc2Cl)CC1 [Compound V, 4-(Furan-2-carbonyl)-piperazine-1-carbothioic acid (2-chloro-5-trifluoromethyl-phenyl)-amide, reference compound] | 101 to 1000 nM | – | – | -20% | – | – | – | – |
| O=C(Nc1cc(C(F)(F)F)ccc1Cl)N1CCN(C(=O)c2ccco2)CC1 [Compound III, 4-(Furan-2-carbonyl)-piperazine-1-carboxylic acid (2-chloro-5-trifluoromethyl-phenyl)-amide, reference compound] | 101 to 1000 nM | – | – | -8% | – | – | – | – |
| O=C(Nc1cc(Cl)cc(Cl)c1)N1CCN(C(=O)c2ccco2)CC1 [Compound II, 4-(Furan-2-carbonyl)-piperazine-1-carboxylic acid (3,5-dichloro-phenyl)-amide, reference compound] | 101 to 1000 nM | – | – | -17% | – | – | – | – |
| O=C(c1ccccc1)N1CCN(C(=S)Nc2cc(C(F)(F)F)ccc2Cl)CC1 [Compound XI, 4-Benzoyl-piperazine-1-carbothioic acid (2-chloro-5-trifluoromethyl-phenyl)-amide, reference compound] | 11 to 100 nM | – | – | -12% | – | – | – | – |
| Cc1nc(-c2cccc(NC(=O)N3CCN(C(=O)c4cccc(F)c4)CC3)c2)no1 [Compound 30, 4-(3-Fluoro-benzoyl)-piperazine-1-carboxylic acid [3-(5-methyl-[1,2,4]oxadiazol-3-yl)-phenyl]-amide] | 11 to 100 nM | 11 to 100 nM | 11 to 100 nM | 16% | 13% | 16% | – | – |
| O=C(c1ccccc1)N1CCN(C(=S)Nc2cc(Cl)cc(Cl)c2)CC1 [Compound X, 4-Benzoyl-piperazine-1-carbothioic acid (3,5-dichloro-phenyl)-amide, reference compound] | 101 to 1000 nM | – | – | -10% | – | – | – | – |
| O=C(c1ccccc1)N1CCN(C(=S)Nc2ccc(C(F)(F)F)cc2)CC1 [Compound XII, 4-Benzoyl-piperazine-1-carbothioic acid (4-trifluoromethyl-phenyl)-amide, reference compound] | 11 to 100 nM | – | – | -14% | – | – | – | – |
| O=C(Nc1nc(-c2ccccc2)cs1)N1CCN(C(=O)c2cccc(F)c2)CC1 [Compound 69, 4-(3-Fluoro-benzoyl)-piperazine-1-carboxylic acid (4-phenyl-thiazol-2-yl)-amide] | 11 to 100 nM | 11 to 100 nM | 11 to 100 nM | -22% | −13% | −22% | – | – |
